This passage reports IC50 results from US20110182850A1, “ORGANIC COMPOUNDS AND THEIR USES” (priority 2009, published 2011).

The structures appear in SMILES notation.

The target in one assay is T1, HCV NS3-4A serine protease (full-length NS3-4A protein, genotype 1a, strain HCV-1) (Hepatitis C virus genotype 1a, UniProt P26664).
T1 construct: using the full-length NS3-4A protein (genotype 1a, strain HCV-1)
T1 sequence (P26664 1658-1711): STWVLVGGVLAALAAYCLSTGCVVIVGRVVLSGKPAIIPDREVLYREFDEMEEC
T1 sequence (P26664 1027-1657): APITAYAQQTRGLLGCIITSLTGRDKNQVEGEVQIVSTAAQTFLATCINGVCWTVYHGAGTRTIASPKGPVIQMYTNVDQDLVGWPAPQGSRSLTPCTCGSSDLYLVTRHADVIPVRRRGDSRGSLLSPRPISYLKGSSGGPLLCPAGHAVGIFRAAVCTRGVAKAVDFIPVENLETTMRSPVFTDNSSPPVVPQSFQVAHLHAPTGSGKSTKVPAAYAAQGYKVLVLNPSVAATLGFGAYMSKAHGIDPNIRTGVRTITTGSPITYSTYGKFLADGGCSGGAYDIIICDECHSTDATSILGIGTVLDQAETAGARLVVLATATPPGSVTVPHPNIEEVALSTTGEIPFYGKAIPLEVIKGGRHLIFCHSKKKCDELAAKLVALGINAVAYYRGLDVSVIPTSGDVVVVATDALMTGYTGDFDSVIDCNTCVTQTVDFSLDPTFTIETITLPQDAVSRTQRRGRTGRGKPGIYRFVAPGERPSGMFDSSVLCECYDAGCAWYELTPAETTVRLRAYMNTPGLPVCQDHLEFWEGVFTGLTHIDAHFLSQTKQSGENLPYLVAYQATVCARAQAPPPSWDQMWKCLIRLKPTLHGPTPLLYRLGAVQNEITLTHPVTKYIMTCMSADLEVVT
As to the kind of experiment: HCV NS3-4A protease assay. It counts as biochemical. Conditions: Protease IC50. The method, then: The inhibitory activity of certain compounds of Table A against HCV NS3-4A serine protease is determined in a homogenous assay using the full-length NS3-4A protein (genotype 1a, strain HCV-1) and a commercially available internally-quenched fluorogenic peptide substrate as described by Taliani, M., et al. 1996 Anal. Biochem. 240:60-67, which is incorporated by reference in its entirety.
Regarding `C=C[C@@H]1C[C@]1(NC(=O)[C@@H]1C[C@@]2(CN1C(=O)[C@@H](NC(=O)[C@@H](NC(=O)c1cc(C(C)C)n[nH]1)C(C)(C)C)C(C)(C)C)C(C)(C)C21CCC1)C(=O)NS(=O)(=O)C1CC1` [Compound 39, (5R,8S)-N-{(1R,2S)-1-[(cyclopropylsulfonyl)carba-moyl]-2-vinylcyclopropyl}-7-[(2S)-2-{[(2S)-2-{[(3-isopropyl-1H-pyrazol-5-yl)carbonyl]amino}-3,3-dimethylbutanoyl]amino}-3,3-dimethylbutanoyl]-10,10-dimethyl-7-azadispiro[3.0.4.1]decane-8-carboxamide], the IC50 is 6 nM.
For `C=C[C@@H]1C[C@]1(NC(=O)[C@@H]1C[C@@]2(CN1C(=O)[C@@H](NC(=O)[C@@H](NC(=O)C1CNC(=O)N1)C(C)(C)C)C(C)(C)C)C(C)(C)C21CCC1)C(=O)NS(=O)(=O)C1CC1` (stereo partly drawn) [Compound 40, (5R,8S)-N-{(1R,2S)-1-[(cyclopropylsulfonyl)carba-moyl]-2-vinylcyclopropyl}-7-[(2S)-2-{[(2S)-3,3-dimethyl-2-{[(2-oxoimidazolidin-4-yl)carbonyl]amino}butanoyl]amino}-3,3-dimethylbutanoyl]-10,10-dimethyl-7-azadispiro[3.0.4.1]decane-8-carboxamide], half-maximal inhibition (IC50) was put at 10 nM.
In turn, `C=C[C@@H]1C[C@]1(NC(=O)[C@@H]1C[C@@]2(CN1C(=O)[C@@H](NC(=O)[C@@H](NC(=O)c1ncn[nH]1)C(C)(C)C)C(C)(C)C)C(C)(C)C21CCC1)C(=O)NS(=O)(=O)C1CC1` [Compound 41, (5R,8S)-N-{(1R,2S)-1-[(cyclopropylsulfonyl)carba-moyl]-2-vinylcyclopropyl}-7-[(2S)-2-({(2S)-3,3-dimethyl-2-[(1H-1,2,4-triazol-5-ylcarbonyl)amino]butanoyl}amino)-3,3-dimethylbutanoyl]-10,10-dimethyl-7-azadispiro[3.0.4.1]decane-8-carboxamide] gave an IC50 of 25 nM.
Same read-out and setting: under `C=C[C@@H]1C[C@]1(NC(=O)[C@@H]1C[C@@]2(CN1C(=O)[C@@H](NC(=O)[C@@H](NC(=O)c1c[nH]c(=O)[nH]1)C(C)(C)C)C(C)(C)C)C(C)(C)C21CCC1)C(=O)NS(=O)(=O)C1CC1` [Compound 44, (5R,8S)-N-{(1R,2S)-1-[(cyclopropylsulfonyl)carba-moyl]-2-vinylcyclopropyl}-7-[(2S)-2-{[(2S)-3,3-dimethyl-2-{[(2-oxo-2,3-dihydro-1H-imidazol-4-yl)carbonyl]amino}butanoyl]amino}-3,3-dimethylbutanoyl]-10,10-dimethyl-7-azadispiro[3.0.4.1]decane-8-carboxamide] stands 2 nM; under `C=C[C@@H]1C[C@]1(NC(=O)[C@@H]1C[C@@]2(CN1C(=O)[C@@H](NC(=O)[C@H]1NC(=O)[C@@H]3CCCCN3CCCCCCC1(C)C)C(C)(C)C)C(C)(C)C21CCC1)C(=O)NS(=O)(=O)C1CC1` [Compound 53, (5R,8S)-N-{(1R,2S)-1-[(cyclopropylsulfonyl)carba-moyl]-2-vinylcyclopropyl}-7-[(2S)-2-({[(3S,15aS)-4,4-dimethyl-1-oxotetradecahydro-2H-pyrido[1,2-a][1,4]diazacyclododecin-3-yl]carbonyl}amino)-3,3-dimethylbutanoyl]-10,10-dimethyl-7-azadispiro[3.0.4.1]decane-8-carboxamide], 3.5 nM.

Staying with this assay, now noted: read-out: Protease IC50.
With `C=C[C@@H]1C[C@]1(NC(=O)[C@@H]1C[C@@]2(CN1C(=O)[C@@H](NC(=O)O[C@H](C(=O)N(C)C)C(C)(C)C)C(C)(C)C)C(C)(C)C21CCC1)C(=O)NS(=O)(=O)C1CC1` [Compound 42, (1S)-1-(dimethylcarbamoyl)-2,2-dimethylpropyl [(1S)-1-{[(5R,8S)-8-({(1R,2S)-1-[(cyclopropylsulfonyl)carba-moyl]-2-vinylcyclopropyl}carbamoyl)-10,10-dimethyl-7-azadispiro[3.0.4.1]dec-7-yl]carbonyl}-2,2-dimethylpropyl]carbamate], the IC50 was found to be 140 nM.
With `C=C[C@@H]1C[C@]1(NC(=O)[C@@H]1C[C@@]2(CN1C(=O)[C@@H](CC(=O)OC(C)(C)C)C(C)(C)C)C(C)(C)C21CCC1)C(=O)NS(=O)(=O)C1CC1` [Compound 43, tert-butyl (3S)-3-{[(5R,8S)-8-({(1R,2S)-1-[(cyclopropylsulfonyl)carba-moyl]-2-vinylcyclopropyl}carbamoyl)-10,10-dimethyl-7-azadispiro[3.0.4.1]dec-7-yl]carbonyl}-4,4-dimethylpentanoate], the IC50 turned out to be 450 nM.
With `C=C[C@@H]1C[C@]1(NC(=O)[C@@H]1C[C@@]2(CN1C(=O)[C@@H](NC(=O)[C@@H](CC(=O)OC(C)(C)C)C(C)(C)C)C(C)(C)C)C(C)(C)C21CCC1)C(=O)NS(=O)(=O)C1CC1` [Compound 45, tert-butyl (3S)-3-{[(1S)-1-{[(5R,8S)-8-({(1R,2S)-1-[(cyclopropylsulfonyl)carba-moyl]-2-vinylcyclopropyl}carbamoyl)-10,10-dimethyl-7-azadispiro[3.0.4.1]dec-7-yl]carbonyl}-2,2-dimethylpropyl]carbamoyl}-4,4-dimethylpentanoate], the IC50 came to 65 nM.
Turning to `C=C[C@@H]1C[C@]1(NC(=O)[C@@H]1C[C@@]2(CN1C(=O)[C@@H](NC(=O)[C@@H](NS(=O)(=O)c1ccccc1)C(C)(C)C)C(C)(C)C)C(C)(C)C21CCC1)C(=O)NS(=O)(=O)C1CC1` [Compound 46, (5R,8S)-N-{(1R,2S)-1-[(cyclopropylsulfonyl)carba-moyl]-2-vinylcyclopropyl}-7-[(2S)-2-({(2S)-3,3-dimethyl-2-[(phenylsulfonyl)amino]butanoyl}amino)-3,3-dimethylbutanoyl]-10,10-dimethyl-7-azadispiro[3.0.4.1]decane-8-carboxamide], the IC50 was 150 nM.
Take `C=C[C@@H]1C[C@]1(NC(=O)[C@@H]1C[C@@]2(CN1C(=O)[C@@H](NC(=O)[C@@H](NS(C)(=O)=O)C(C)(C)C)C(C)(C)C)C(C)(C)C21CCC1)C(=O)NS(=O)(=O)C1CC1` [Compound 47, (5R,8S)-N-{(1R,2S)-1-[(cyclopropylsulfonyl)carba-moyl]-2-vinylcyclopropyl}-7-[(2S)-2-({(2S)-3,3-dimethyl-2-[(methylsulfonyl)amino]butanoyl}amino)-3,3-dimethylbutanoyl]-10,10-dimethyl-7-azadispiro[3.0.4.1]decane-8-carboxamide]: the concentration for half-maximal inhibition (IC50) turned out to be 65 nM.
With `C=C[C@@H]1C[C@]1(NC(=O)[C@@H]1C[C@@]2(CN1C(=O)[C@@H](NC(=O)[C@@H](NS(=O)(=O)N(C)C)C(C)(C)C)C(C)(C)C)C(C)(C)C21CCC1)C(=O)NS(=O)(=O)C1CC1` [Compound 48, (5R,8S)-N-{(1R,2S)-1-[(cyclopropylsulfonyl)carba-moyl]-2-vinylcyclopropyl}-7-[(2S)-2-{[(2S)-2-{[(dimethylamino)sulfonyl]amino}-3,3-dimethylbutanoyl]amino}-3,3-dimethylbutanoyl]-10,10-dimethyl-7-azadispiro[3.0.4.1]decane-8-carboxamide], the IC50 was 95 nM.
Consider `C=C[C@@H]1C[C@]1(NC(=O)[C@@H]1C[C@@]2(CN1C(=O)[C@@H](NC(=O)[C@@H](NS(=O)(=O)c1ncn[nH]1)C(C)(C)C)C(C)(C)C)C(C)(C)C21CCC1)C(=O)NS(=O)(=O)C1CC1` [Compound 49, (5R,8S)-N-{(1R,2S)-1-[(cyclopropylsulfonyl)carba-moyl]-2-vinylcyclopropyl}-7-[(2S)-2-({(2S)-3,3-dimethyl-2-[(1H-1,2,4-triazol-5-ylsulfonyl)amino]butanoyl}amino)-3,3-dimethylbutanoyl]-10,10-dimethyl-7-azadispiro[3.0.4.1]decane-8-carboxamide], for which the IC50 came out at 200 nM.
In the case of `C=C[C@@H]1C[C@]1(NC(=O)[C@@H]1C[C@@]2(CN1C(=O)[C@@H](NC(=O)[C@@H](NS(=O)(=O)Cc1ccccc1)C(C)(C)C)C(C)(C)C)C(C)(C)C21CCC1)C(=O)NS(=O)(=O)C1CC1` [Compound 50, (5R,8S)-7-[(2S)-2-({(2S)-2-[(benzylsulfonyl)amino]-3,3-dimethylbutanoyl}amino)-3,3-dimethylbutanoyl]-N-{(1R,2S)-1-[(cyclopropylsulfonyl)carba-moyl]-2-vinylcyclopropyl}-10,10-dimethyl-7-azadispiro[3.0.4.1]decane-8-carboxamide], the IC50 was 20 nM.
Same read-out and setting: to `C=C[C@@H]1C[C@]1(NC(=O)[C@@H]1C[C@@]2(CN1C(=O)[C@@H](NC(=O)[C@@H](NS(=O)(=O)c1c(C)noc1C)C(C)(C)C)C(C)(C)C)C(C)(C)C21CCC1)C(=O)NS(=O)(=O)C1CC1` [Compound 51, (5R,8S)-N-{(1R,2S)-1-[(cyclopropylsulfonyl)carba-moyl]-2-vinylcyclopropyl}-7-[(2S)-2-{[(2S)-2-{[(3,5-dimethylisoxazol-4-yl)sulfonyl]amino}-3,3-dimethylbutanoyl]amino}-3,3-dimethylbutanoyl]-10,10-dimethyl-7-azadispiro[3.0.4.1]decane-8-carboxamide] belongs 250 nM.
In the case of `C=C[C@@H]1C[C@]1(NC(=O)[C@@H]1C[C@@]2(CN1C(=O)[C@@H](NC(=O)[C@@H](NS(=O)(=O)c1cn(C)cn1)C(C)(C)C)C(C)(C)C)C(C)(C)C21CCC1)C(=O)NS(=O)(=O)C1CC1` [Compound 52, (5R,8S)-N-{(1R,2S)-1-[(cyclopropylsulfonyl)carba-moyl]-2-vinylcyclopropyl}-7-[(2S)-2-{[(2S)-3,3-dimethyl-2-{[(1-methyl-1H-imidazol-4-yl)sulfonyl]amino}butanoyl]amino}-3,3-dimethylbutanoyl]-10,10-dimethyl-7-azadispiro[3.0.4.1]decane-8-carboxamide], the IC50 came to 200 nM.
`C=C[C@@H]1C[C@]1(NC(=O)[C@@H]1C[C@@]2(CN1C(=O)[C@@H](NC(=O)c1cocn1)C(C)(C)C)C(C)(C)C21CCC1)C(=O)NS(=O)(=O)C1CC1` [Compound 54, (5R,8S)-N-{(1R,2S)-1-[(cyclopropylsulfonyl)carba-moyl]-2-vinylcyclopropyl}-7-{(2S)-3,3-dimethyl-2-[(1,3-oxazol-4-ylcarbonyl)amino]butanoyl}-10,10-dimethyl-7-azadispiro[3.0.4.1]decane-8-carboxamide]: the half-inhibitory concentration (IC50) is 2150 nM.

In general, IC50 refers to the concentration that inhibits the measured activity by half.
